# Target: T1, GSK-3β (AA 1-420) (Homo sapiens, UniProt P49841)
# T1 construct: GSK-3β (AA 1-420)
# Test: Ki determination for the inhibition of GSK-3 (coupled enzyme system)
# Format: biochemical
# Details: 20 μM ATP, 20 nM GSK-3β, 30° C.
# Procedure: Compounds were screened for their ability to inhibit GSK-3β (AA 1-420) activity using a standard coupled enzyme system (Fox et al. (1998) Protein Sci. 7, 2249). Reactions were carried out in a solution containing 100 mM HEPES (pH 7.5), 10 mM MgCl2, 25 mM NaCl, 300 μM NADH, 1 mM DTT and 1.5% DMSO. Final substrate concentrations in the assay were 20 μM ATP (Sigma Chemicals, St Louis, Mo.) and 300 μM peptide (HSSPHQS (PO3H2) EDEEE, American Peptide, Sunnyvale, Calif.). Reactions were carried out at 30° C. and 20 nM GSK-3β. Final concentrations of the components of the coupled enzyme system were 2.5 mM phosphoenolpyruvate, 300 μM NADH, 30 μg/ml pyruvate kinase and 10 μg/ml lactate dehydrogenase.
# An assay stock buffer solution was prepared containing all of the reagents listed above with the exception of ATP and the test compound of interest. The assay stock buffer solution (175 μl) was incubated in a 96 well plate with 5 μl of the test compound of interest at final concentrations spanning 0.002 μM to 30 μM at 30° C. for 10 min. […] The reaction was initiated by the addition of 20 μl of ATP (final concentration 20 μM). Rates of reaction were obtained using a Molecular Devices Spectramax plate reader (Sunnyvale, Calif.) over 10 min at 30° C. The Ki values were determined from the rate data as a function of inhibitor concentration.
# T1 sequence (P49841 whole entry, the tested form may be a part): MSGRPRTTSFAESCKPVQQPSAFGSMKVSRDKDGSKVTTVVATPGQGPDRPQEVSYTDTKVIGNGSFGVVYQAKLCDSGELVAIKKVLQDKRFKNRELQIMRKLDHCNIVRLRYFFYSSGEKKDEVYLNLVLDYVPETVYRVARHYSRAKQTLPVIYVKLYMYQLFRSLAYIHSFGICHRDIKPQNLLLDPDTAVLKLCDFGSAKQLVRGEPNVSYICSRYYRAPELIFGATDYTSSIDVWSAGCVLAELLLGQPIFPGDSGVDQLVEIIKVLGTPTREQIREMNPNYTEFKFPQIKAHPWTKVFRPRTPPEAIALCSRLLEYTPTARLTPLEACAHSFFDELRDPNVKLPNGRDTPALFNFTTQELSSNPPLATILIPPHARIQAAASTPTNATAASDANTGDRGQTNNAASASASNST
row,Ki,SMILES
1,1000 to 7000 nM,"Cc1cc(Nc2cc(N3CCN(C)CC3)nc(SCc3ccccc3)n2)n[nH]1 [IIIa-28, [2-Benzylsulfanyl-6-(4-methylpiperazin-1-yl)-pyrimidin-4-yl]-(5-methyl-2H-pyrazol-3-yl)-amine]"
2,100 to 1000 nM,"Cc1cc(Nc2cc(N3CCOCC3)nc(SCc3ccccc3)n2)n[nH]1 [IIIa-29, [2-Benzylsulfanyl-6-morpholin-4-yl-pyrimidin-4-yl]-(5-methyl-2H-pyrazol-3-yl)-amine]"
3,1000 to 7000 nM,"CCC(=O)Nc1ccc(Sc2nc(COC)cc(Nc3cc(C)[nH]n3)n2)cc1 [IIIa-38, [6-Methoxymethyl-2-(4-propionylamino-phenyl-sulfanyl)-pyrimidin-4-yl]-(5-methyl-2H-pyrazol-3-yl)-amine]"
4,100 to 1000 nM,CC(=O)Nc1ccc(Oc2nc(Nc3cc(C)[nH]n3)cc(-c3ccccc3)n2)cc1 [IIIb-11]
5,< 100 nM,Cc1cc(Nc2cc(-c3ccccc3)nc(Oc3ccc(NC(=O)C(C)C)cc3)n2)n[nH]1 [IIIb-13]
6,100 to 1000 nM,"Cc1cc(Nc2cc(-c3ccccc3)nc(Nc3ccccc3)n2)n[nH]1 [IIIc-1, (5-Methyl-2H-pyrazol-3-yl)-(6-phenyl-2-phenylamino-pyrimidin-4-yl)-amine]"
7,100 to 1000 nM,"COc1cc(-c2cc(Nc3cc(C)[nH]n3)nc(Nc3ccc(S(N)(=O)=O)cc3)n2)cc(OC)c1OC [IIIc-8, (5-Methyl-2H-pyrazol-3-yl)-[2-(4-sulfamoylphenylamino)-6-(3,4,5-trimethoxyphenyl)-pyrimidin-4-yl]-amine]"
8,1000 to 7000 nM,"Cc1cc(Nc2cc(-c3ccccc3)[nH]n2)nc(Nc2nc3ccccc3[nH]2)n1 [IIIc-16, [2-(Benzimidazol-2-ylamino)-6-methyl-pyrimidin-4-yl]-(5-phenyl-2H-pyrazol-3-yl)-amine]"
9,1000 to 7000 nM,"Cc1cc(Nc2cc(-c3ccco3)[nH]n2)nc(Nc2nc3ccccc3[nH]2)n1 [IIIc-17, [2-(Benzimidazol-2-ylamino)-6-methyl-pyrimidin-4-yl]-[5-(Furan-2-yl)-2H-pyrazol-3-yl]-amine]"
10,< 100 nM,"Cc1cc(Nc2cc(C)[nH]n2)nc(Nc2ccc(Cl)cc2)n1 [IIIc-18, [2-(4-Chlorophenylamino)-6-methyl-pyrimidin-4-yl]-(5-methyl-2H-pyrazol-3-yl)-amine]"
11,< 100 nM,"Cc1cc(Nc2nc(Nc3ccc(Cl)cc3)nc(C)c2C)n[nH]1 [IIIc-19, [2-(4-Chlorophenyl)amino-5,6-dimethyl-pyrimidin-4-yl]-(5-methyl-2H-pyrazol-3-yl)-amine]"
12,100 to 1000 nM,"Cc1cc(Nc2nc(Nc3ccccc3)nc(C)c2C)n[nH]1 [IIIc-20, (5,6-Dimethyl-2-phenylamino-pyrimidin-4-yl)-(5-methyl-2H-pyrazol-3-yl)-amine]"
13,< 100 nM,"COCc1cc(Nc2cc(C)[nH]n2)nc(Nc2ccc(Cl)cc2)n1 [IIIc-21, [2-(4-Chlorophenyl)amino-6-methoxymethyl-pyrimidin-4-yl]-(5-methyl-2H-pyrazol-3-yl)-amine]"
14,1000 to 7000 nM,"COCc1cc(Nc2cc(C)[nH]n2)nc(Nc2nc3ccccc3[nH]2)n1 [IIIc-22, [2-(Benzimidazol-2-ylamino)-6-methoxymethyl-pyrimidin-4-yl]-(5-methyl-2H-pyrazol-3-yl)-amine]"
15,100 to 1000 nM,"COCc1cc(Nc2cc(C)[nH]n2)nc(Nc2ccccc2)n1 [IIIc-23, (6-Methoxymethyl-2-phenylamino-pyrimidin-4-yl)-(5-methyl-2H-pyrazol-3-yl)-amine]"
16,< 100 nM,"Cc1cc(Nc2cc(C)[nH]n2)nc(Nc2ccccc2)n1 [IIIc-24, (6-Methyl-2-phenylamino-pyrimidin-4-yl)-(5-methyl-2H-pyrazol-3-yl)-amine]"
17,< 100 nM,Cc1cc(Nc2cc(C)[nH]n2)nc(C(C)(C)c2ccccc2)n1 [IIId-21]
18,100 to 1000 nM,"Cc1cc(Nc2nc(Nc3ccccc3)nc3c2CCCCC3)n[nH]1 [IIc-79, (5-Methyl-2H-pyrazol-3-yl)-(2-phenylamino-6,7,8,9-tetrahydro-5H-cycloheptapyrimidin-4-yl)-amine]"

# The remaining lines, values behind:
row,SMILES,Ki
1,"CC(=O)Nc1ccc(Sc2nc(Nc3cc(C)[nH]n3)cc(-c3ccccc3)n2)cc1 [IIIa-11, [2-(4-Acetamido-phenylsulfanyl)-6-phenyl-pyrimidin-4-yl]-(5-methyl-2H-pyrazol-3-yl)-amine]",100 to 1000 nM
2,"CCC(=O)Nc1ccc(Sc2nc(Nc3cc(C)[nH]n3)cc(-c3ccccc3)n2)cc1 [IIIa-15, (5-Methyl-2H-pyrazol-3-yl)-[6-phenyl-2-(4-propionylamino-phenylsulfanyl)-pyrimidin-4-yl]-amine]",1000 to 7000 nM
3,"Cc1cc(Nc2cc(N3CCN(C)CC3)nc(SCc3cccc(Cl)c3)n2)n[nH]1 [IIIa-30, [2-(3-Chloro-benzylsulfanyl)-6-(4-methylpiperazin-1-yl)-pyrimidin-4-yl]-(5-methyl-2H-pyrazol-3-yl)-amine]",100 to 1000 nM
4,"COc1ccc(CSc2nc(Nc3cc(C)[nH]n3)cc(N3CCN(C)CC3)n2)cc1 [IIIa-31, [2-(4-methoxy-benzylsulfanyl)-6-(4-methylpiperazin-1-yl)-pyrimidin-4-yl]-(5-methyl-2H-pyrazol-3-yl)-amine]",100 to 1000 nM
5,"Cc1cc(Nc2cc(N3CCOCC3)nc(SCc3ccc(S(=O)(=O)N4CCOCC4)cc3)n2)n[nH]1 [IIIa-35, (5-Methyl-2H-pyrazol-3-yl)-{2-[4-(morpholinesulfonyl)-benzylsulfanyl]-6-morpholin-4-yl-pyrimidin-4-yl}-amine]",1000 to 7000 nM
6,"COc1cc(CSc2nc(Nc3cc(C)[nH]n3)cc(N3CCCC3)n2)cc(OC)c1 [IIIa-41, [2-(3,5-Dimethoxy-benzylsulfanyl)-6-pyrrolidin-4-yl-pyrimidin-4-yl]-(5-methyl-2H-pyrazol-3-yl)-amine]",1000 to 7000 nM
7,"CCC(=O)Nc1ccc(Sc2nc(CO)cc(Nc3cc(C)n[nH]3)n2)cc1 [IIIa-45, [6-Hydroxymethyl-2-(4-propionylamino-phenyl-sulfanyl)-pyrimidin-4-yl]-(5-methyl-2H-pyrazol-3-yl)-amine]",1000 to 7000 nM
8,CNC(=O)c1cc(Nc2cc(C)[nH]n2)nc(Sc2ccc(NC(C)=O)cc2)n1 [IIIa-49],1000 to 7000 nM
9,Cc1cc(Nc2cc(-c3ccccc3)nc(Oc3ccc4ccccc4c3)n2)n[nH]1 [IIIb-12],100 to 1000 nM
10,"Cc1cc(Nc2nc(Nc3ccccc3)nc3c2CCCC3)n[nH]1 [IIc-45, (5-Methyl-2H-pyrazol-3-yl)-(2-phenylamino-5,6,7,8-tetrahydroquinazolinin-4-yl)-amine]",100 to 1000 nM
11,"c1ccc(Nc2nc(Nc3n[nH]c4ccccc34)c3ccccc3n2)cc1 [IIc-70, (1H-Indazol-3-yl)-(2-phenylamino-quinazolin-4-yl)-amine]",1000 to 7000 nM
12,"FC(F)(F)c1ccc(Nc2nc(Nc3n[nH]c4ccccc34)c3ccccc3n2)cc1 [IIc-72, (1H-Indazol-3-yl)-[2-(4-trifluoromethylphenylamino)-quinazolin-4-yl]-amine]",100 to 1000 nM
13,"N#CCc1ccc(Nc2nc(Nc3n[nH]c4ccccc34)c3ccccc3n2)cc1 [IIc-77, [2-(4-Cyanomethylphenylamino)-quinazolin-4-yl]-(1H-indazol-3-yl)-amine]",< 100 nM
14,"Cc1cc(Nc2nc(Nc3ccc(Cl)cc3)nc3c2CCCC3)n[nH]1 [IIc-78, [2-(4-Chlorophenylamino)-5,6,7,8-tetrahydroquinazolinin-4-yl]-(5-methyl-2H-pyrazol-3-yl)-amine]",< 100 nM
15,Cc1cc(Nc2nc(C(C)(C)c3ccccc3)nc3c2CCCCC3)n[nH]1 [IId-14],< 100 nM
